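How tested: cells in 96-well plates exposed to compound for 48 hours at five concentrations. TGI: total growth inhibition.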
Key:
Assay in all cases: NCI tumour cell line growth inhibition, 48 h
MCF7 breast = system: MCF7 breast
KM12 colon = system: KM12 colon
LOX IMVI melanoma = system: LOX IMVI melanoma
SR leukemia = system: SR leukemia
SK-OV-3 ovarian = system: SK-OV-3 ovarian
SF-539 CNS = system: SF-539 CNS
SK-MEL-28 melanoma = system: SK-MEL-28 melanoma
UO-31 renal = system: UO-31 renal
EKVX NSCLC = system: EKVX NSCLC
PC-3 prostate = system: PC-3 prostate
SK-MEL-5 melanoma = system: SK-MEL-5 melanoma
SW-620 colon = system: SW-620 colon
RXF 393 renal = system: RXF 393 renal
HCT-15 colon = system: HCT-15 colon
786-0 renal = system: 786-0 renal
MALME-3M melanoma = system: MALME-3M melanoma
OVCAR-5 ovarian = system: OVCAR-5 ovarian
T-47D breast = system: T-47D breast
COLO 205 colon = system: COLO 205 colon
SF-268 CNS = system: SF-268 CNS
A549 NSCLC = system: A549 NSCLC
MOLT-4 leukemia = system: MOLT-4 leukemia
CCRF-CEM leukemia = system: CCRF-CEM leukemia
NCI-H522 lung = system: NCI-H522 lung
NCI-H226 lung = system: NCI-H226 lung
TK-10 renal = system: TK-10 renal
U251 CNS = system: U251 CNS
HOP-92 NSCLC = system: HOP-92 NSCLC
SN12C renal = system: SN12C renal
SF-295 CNS = system: SF-295 CNS
UACC-62 melanoma = system: UACC-62 melanoma
OVCAR-3 ovarian = system: OVCAR-3 ovarian
DU-145 prostate = system: DU-145 prostate
MDA-MB-435 = system: MDA-MB-435
M14 melanoma = system: M14 melanoma
HOP-62 NSCLC = system: HOP-62 NSCLC
HS 578T breast = system: HS 578T breast
SNB-75 CNS = system: SNB-75 CNS
ACHN renal = system: ACHN renal
BT-549 breast = system: BT-549 breast
HCT-116 colon = system: HCT-116 colon
OVCAR-4 ovarian = system: OVCAR-4 ovarian
UACC-257 melanoma = system: UACC-257 melanoma
RPMI-8226 leukemia = system: RPMI-8226 leukemia
HCC-2998 colon = system: HCC-2998 colon
NCI-H460 lung = system: NCI-H460 lung
K-562 leukemia = system: K-562 leukemia
OVCAR-8 ovarian = system: OVCAR-8 ovarian
HL-60(TB) leukemia = system: HL-60(TB) leukemia
SK-MEL-2 melanoma = system: SK-MEL-2 melanoma
SNB-19 CNS = system: SNB-19 CNS
NCI/ADR-RES ovarian = system: NCI/ADR-RES ovarian
MDA-MB-231 breast = system: MDA-MB-231 breast
NCI-H23 lung = system: NCI-H23 lung
A498 renal = system: A498 renal
IGROV1 ovarian = system: IGROV1 ovarian
CAKI-1 renal = system: CAKI-1 renal
HT29 colon = system: HT29 colon
MDA-N = system: MDA-N
M19-MEL melanoma = system: M19-MEL melanoma
KM20L2 colon = system: KM20L2 colon
DMS 114 small cell lung = system: DMS 114 small cell lung
SNB-78 CNS = system: SNB-78 CNS
HOP-18 NSCLC = system: HOP-18 NSCLC
LXFL 529 NSCLC = system: LXFL 529 NSCLC
DMS 273 small cell lung = system: DMS 273 small cell lung

Compound C=CCOC(=O)[C@@H]1C[C@@H](OC(C)(C)C)CN1C(=O)[C@@H]1[C@H]2OC(C)(C)O[C@H]2CN1C(=O)OCC1c2ccccc2-c2ccccc21 has a TGI (MCF7 breast) of over 100 µM, a TGI (KM12 colon) of 11 µM and a TGI (LOX IMVI melanoma) of 4.87 µM. For the same compound, the TGI (SR leukemia) was 31.7 µM, the TGI (SK-OV-3 ovarian) was 31.6 µM and the TGI (SF-539 CNS) was 28.9 µM. It also gave a TGI (SK-MEL-28 melanoma) of 34.6 µM, a TGI (UO-31 renal) of 0.614 µM and a TGI (EKVX NSCLC) of 10.6 µM. For the same compound, the TGI (PC-3 prostate) was 30.8 µM, the TGI (SK-MEL-5 melanoma) was 37 µM and the TGI (SW-620 colon) was 43.4 µM. It also gave a TGI (RXF 393 renal) of 24.7 µM, a TGI (HCT-15 colon) of 39.4 µM and a TGI (786-0 renal) of 9.97 µM. For the same compound, the TGI (MALME-3M melanoma) was 39.2 µM, the TGI (OVCAR-5 ovarian) was 32.9 µM and the TGI (T-47D breast) was 45 µM. It also gave a TGI (COLO 205 colon) of 45.7 µM, a TGI (SF-268 CNS) of 40.1 µM and a TGI (A549 NSCLC) of 31.9 µM. It also gave a TGI (MOLT-4 leukemia) of 34.4 µM, a TGI (CCRF-CEM leukemia) of 36.3 µM and a TGI (NCI-H522 lung) of 1.39 µM. For the same compound, the TGI (NCI-H226 lung) was 47.7 µM, the TGI (TK-10 renal) was 32.5 µM and the TGI (U251 CNS) was 28.8 µM. It also gave a TGI (HOP-92 NSCLC) of 35 µM, a TGI (SN12C renal) of 32.2 µM and a TGI (SF-295 CNS) of 34.4 µM. The TGI (UACC-62 melanoma) was 34.5 µM, the TGI (OVCAR-3 ovarian) was 35.2 µM and the TGI (DU-145 prostate) was 8.12 µM. It also gave a TGI (MDA-MB-435) of 34.7 µM, a TGI (M14 melanoma) of 36 µM and a TGI (HOP-62 NSCLC) of 4.51 µM. It also gave a TGI (HS 578T breast) of 42.5 µM, a TGI (SNB-75 CNS) of 33.9 µM and a TGI (ACHN renal) of 30.1 µM. It also gave a TGI (BT-549 breast) of 37.1 µM, a TGI (HCT-116 colon) of 31.8 µM and a TGI (OVCAR-4 ovarian) of 34.1 µM. It also gave a TGI (UACC-257 melanoma) of 35.4 µM, a TGI (RPMI-8226 leukemia) of 32.3 µM and a TGI (HCC-2998 colon) of 30.7 µM. The TGI (NCI-H460 lung) was 23.6 µM, the TGI (K-562 leukemia) was over 56.9 µM and the TGI (OVCAR-8 ovarian) was 15.3 µM. It also gave a TGI (HL-60(TB) leukemia) of 29.1 µM, a TGI (SK-MEL-2 melanoma) of over 55 µM and a TGI (SNB-19 CNS) of 33 µM. It also gave a TGI (NCI/ADR-RES ovarian) of 9.87 µM, a TGI (MDA-MB-231 breast) of 33.1 µM and a TGI (NCI-H23 lung) of 33.9 µM. The TGI (A498 renal) was 30.5 µM, the TGI (IGROV1 ovarian) was 37.6 µM and the TGI (CAKI-1 renal) was 16.9 µM. For the same compound, the TGI (HT29 colon) was 33.1 µM and the TGI (MDA-N) was 33.4 µM.
Compound Cn1ncnc1CCc1ccccc1 has a TGI (KM12 colon) of over 100 µM, a TGI (LOX IMVI melanoma) of over 100 µM and a TGI (SR leukemia) of over 100 µM. For the same compound, the TGI (SK-OV-3 ovarian) was over 100 µM, the TGI (SF-539 CNS) was over 100 µM and the TGI (SK-MEL-28 melanoma) was over 100 µM. It also gave a TGI (UO-31 renal) of over 100 µM, a TGI (SK-MEL-5 melanoma) of over 100 µM and a TGI (SW-620 colon) of over 100 µM. It also gave a TGI (RXF 393 renal) of over 100 µM, a TGI (HCT-15 colon) of over 100 µM and a TGI (786-0 renal) of over 100 µM. For the same compound, the TGI (M19-MEL melanoma) was over 100 µM, the TGI (KM20L2 colon) was over 100 µM and the TGI (MALME-3M melanoma) was over 100 µM. The TGI (OVCAR-5 ovarian) was over 100 µM, the TGI (COLO 205 colon) was over 100 µM and the TGI (DMS 114 small cell lung) was over 100 µM. It also gave a TGI (SF-268 CNS) of over 100 µM, a TGI (A549 NSCLC) of over 100 µM and a TGI (MOLT-4 leukemia) of over 100 µM. It also gave a TGI (CCRF-CEM leukemia) of over 100 µM, a TGI (NCI-H522 lung) of over 100 µM and a TGI (NCI-H226 lung) of over 100 µM. It also gave a TGI (TK-10 renal) of over 100 µM, a TGI (U251 CNS) of over 100 µM and a TGI (HOP-92 NSCLC) of over 100 µM. It also gave a TGI (SN12C renal) of over 100 µM, a TGI (SF-295 CNS) of over 100 µM and a TGI (UACC-62 melanoma) of over 100 µM. The TGI (SNB-78 CNS) was over 100 µM, the TGI (OVCAR-3 ovarian) was over 100 µM and the TGI (HOP-18 NSCLC) was over 100 µM. The TGI (M14 melanoma) was over 100 µM, the TGI (HOP-62 NSCLC) was over 100 µM and the TGI (LXFL 529 NSCLC) was over 100 µM. For the same compound, the TGI (SNB-75 CNS) was over 100 µM, the TGI (ACHN renal) was over 100 µM and the TGI (HCT-116 colon) was over 100 µM. It also gave a TGI (OVCAR-4 ovarian) of over 100 µM, a TGI (UACC-257 melanoma) of over 100 µM and a TGI (RPMI-8226 leukemia) of over 100 µM. The TGI (NCI-H460 lung) was over 100 µM, the TGI (K-562 leukemia) was over 100 µM and the TGI (OVCAR-8 ovarian) was over 100 µM. The TGI (HL-60(TB) leukemia) was over 100 µM, the TGI (SK-MEL-2 melanoma) was over 100 µM and the TGI (DMS 273 small cell lung) was over 100 µM. The TGI (NCI-H23 lung) was over 100 µM, the TGI (A498 renal) was over 100 µM and the TGI (IGROV1 ovarian) was over 100 µM. For the same compound, the TGI (CAKI-1 renal) was over 100 µM and the TGI (HT29 colon) was over 100 µM.

From PubChem BioAssay (NCI)
